Source: PubChem BioAssay AID1963827 (Molecular Pharmacology Branch, DTP, NCI, 2024)
pIC50: −log10 of the molar value.

Test system: 994946-033-R-J1-PDC complex spheroid viability
Assay: Anticancer human tumor 994946-033-R-J1-PDC patient-derived melanoma cell line growth inhibition [POLQ]
Details: for pIC50: curve of first compound; for viability, T/C: stronger effect = lower value
Summary of the method: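 Three-cell-type spheroids modelling solid tumor plus stroma served as the readout system; POL inhibitors were tested individually and in combination, concentration ranges set by clinical Cmax where known.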

[1] = second compound 0.0316 µM, first compound 0.0316 µM
[2] = second compound 0.0316 µM, first compound 0.1 µM
[3] = second compound 0.0316 µM, first compound 0.316 µM
[4] = second compound 0.0316 µM, first compound 1 µM
[5] = second compound 0.0316 µM, first compound 3.16 µM
[6] = second compound 0.0316 µM, first compound 10 µM
[7] = second compound 0.1 µM, first compound 0.0316 µM
[8] = second compound 0.1 µM, first compound 0.1 µM
[9] = second compound 0.1 µM, first compound 0.316 µM
[10] = second compound 0.1 µM, first compound 1 µM
[11] = second compound 0.1 µM, first compound 3.16 µM
[12] = second compound 0.1 µM, first compound 10 µM
[13] = second compound 0.316 µM, first compound 0.0316 µM
[14] = second compound 0.316 µM, first compound 0.1 µM
[15] = second compound 0.316 µM, first compound 0.316 µM
[16] = second compound 0.316 µM, first compound 1 µM
[17] = second compound 0.316 µM, first compound 3.16 µM
[18] = second compound 0.316 µM, first compound 10 µM
[19] = second compound 1 µM, first compound 0.0316 µM
[20] = second compound 1 µM, first compound 0.1 µM
[21] = second compound 1 µM, first compound 0.316 µM
[22] = second compound 1 µM, first compound 1 µM
[23] = second compound 1 µM, first compound 3.16 µM
[24] = second compound 1 µM, first compound 10 µM
[25] = second compound 3.16 µM, first compound 0.0316 µM
[26] = second compound 3.16 µM, first compound 0.1 µM
[27] = second compound 3.16 µM, first compound 0.316 µM
[28] = second compound 3.16 µM, first compound 1 µM
[29] = second compound 3.16 µM, first compound 3.16 µM
[30] = second compound 3.16 µM, first compound 10 µM
[31] = second compound 10 µM, first compound 0.0316 µM
[32] = second compound 10 µM, first compound 0.1 µM
[33] = second compound 10 µM, first compound 0.316 µM
[34] = second compound 10 µM, first compound 1 µM
[35] = second compound 10 µM, first compound 3.16 µM
[36] = second compound 10 µM, first compound 10 µM
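Note: spheroids exposed to drugs for 7 days.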
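Throughout, for viability, T/C: 100% = DMSO vehicle treated spheroids.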

C=CC(=O)N1CCN(c2nc(=O)n(-c3c(C)ccnc3C(C)C)c3nc(-c4c(O)cccc4F)c(F)cc23)C(C)C1 (centres undefined) + Cc1cccc(N(C)C(=O)C2C(O)CCN2c2nc(C)cc(C(F)(F)F)c2C#N)c1
pIC50 (second compound 0.0316 µM): < 5.00 | pIC50 (second compound 0.1 µM): < 5.00 | pIC50 (second compound 0.316 µM): < 5.00 | pIC50 (second compound 1 µM): < 5.00 | pIC50 (second compound 3.16 µM): < 5.00 | pIC50 (second compound 10 µM): < 5.00 | viability, T/C [1]: 75.8% | viability, T/C [2]: 101% | viability, T/C [3]: 112% | viability, T/C [4]: 126% | viability, T/C [5]: 110% | viability, T/C [6]: 132% | viability, T/C [7]: 94.5% | viability, T/C [8]: 118% | viability, T/C [9]: 129% | viability, T/C [10]: 123% | viability, T/C [11]: 119% | viability, T/C [12]: 113% | viability, T/C [13]: 115% | viability, T/C [14]: 114% | viability, T/C [15]: 94.2% | viability, T/C [16]: 140% | viability, T/C [17]: 123% | viability, T/C [18]: 93.8% | viability, T/C [19]: 113% | viability, T/C [20]: 109% | viability, T/C [21]: 91.1% | viability, T/C [22]: 107% | viability, T/C [23]: 90.2% | viability, T/C [24]: 93.9% | viability, T/C [25]: 130% | viability, T/C [26]: 104% | viability, T/C [27]: 132% | viability, T/C [28]: 119% | viability, T/C [29]: 105% | viability, T/C [30]: 129% | viability, T/C [31]: 84.7% | viability, T/C [32]: 101% | viability, T/C [33]: 105% | viability, T/C [34]: 115% | viability, T/C [35]: 96.3% | viability, T/C [36]: 106%

CC(C)n1c(=O)n(C)c2cnc3cc(F)c(-c4ccc(OCCCN5CCCCC5)nc4)cc3c21 + Cc1cccc(N(C)C(=O)C2C(O)CCN2c2nc(C)cc(C(F)(F)F)c2C#N)c1
pIC50 (second compound 0.0316 µM): 5.20 | pIC50 (second compound 0.1 µM): 5.33 | pIC50 (second compound 0.316 µM): 5.26 | pIC50 (second compound 1 µM): 5.25 | pIC50 (second compound 3.16 µM): 5.18 | pIC50 (second compound 10 µM): 5.38 | viability, T/C [1]: 97.3% | viability, T/C [2]: 97.6% | viability, T/C [3]: 87.2% | viability, T/C [4]: 74.2% | viability, T/C [5]: 71.4% | viability, T/C [6]: 37.8% | viability, T/C [7]: 92.1% | viability, T/C [8]: 67.6% | viability, T/C [9]: 75.8% | viability, T/C [10]: 62.5% | viability, T/C [11]: 69.3% | viability, T/C [12]: 23.8% | viability, T/C [13]: 82.5% | viability, T/C [14]: 117% | viability, T/C [15]: 87.9% | viability, T/C [16]: 93.6% | viability, T/C [17]: 84.5% | viability, T/C [18]: 11.8% | viability, T/C [19]: 97% | viability, T/C [20]: 81% | viability, T/C [21]: 94% | viability, T/C [22]: 93.6% | viability, T/C [23]: 83.5% | viability, T/C [24]: 16.3% | viability, T/C [25]: 94.8% | viability, T/C [26]: 62.2% | viability, T/C [27]: 94.4% | viability, T/C [28]: 90.7% | viability, T/C [29]: 92% | viability, T/C [30]: 29.4% | viability, T/C [31]: 109% | viability, T/C [32]: 92.6% | viability, T/C [33]: 93.2% | viability, T/C [34]: 74.7% | viability, T/C [35]: 63.2% | viability, T/C [36]: 22.3%
